From ChEMBL document CHEMBL1133973, “Asymmetric synthesis of BB-3497--a potent peptide deformylase inhibitor” (Bioorg Med Chem Lett, 2001)
pIC50: −log10 of the molar value.

Legend:
Matrilysin = molecular target: T1, Matrilysin (Homo sapiens, UniProt P09237); test: (§1) Inhibition of Matrix metalloprotease-7
T1 sequence (P09237 whole entry): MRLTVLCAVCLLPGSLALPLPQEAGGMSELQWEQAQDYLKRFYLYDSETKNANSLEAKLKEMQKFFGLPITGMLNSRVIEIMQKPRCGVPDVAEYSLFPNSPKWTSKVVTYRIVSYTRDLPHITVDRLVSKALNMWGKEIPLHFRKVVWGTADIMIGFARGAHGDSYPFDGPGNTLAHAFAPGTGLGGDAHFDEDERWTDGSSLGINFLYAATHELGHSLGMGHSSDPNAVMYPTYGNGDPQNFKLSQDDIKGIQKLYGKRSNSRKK

Stromelysin-1 = Stromelysin-1 (Homo sapiens, UniProt P08254); test: Inhibition of Matrix metalloprotease-3
Stromelysin-1, sequence (P08254 whole entry): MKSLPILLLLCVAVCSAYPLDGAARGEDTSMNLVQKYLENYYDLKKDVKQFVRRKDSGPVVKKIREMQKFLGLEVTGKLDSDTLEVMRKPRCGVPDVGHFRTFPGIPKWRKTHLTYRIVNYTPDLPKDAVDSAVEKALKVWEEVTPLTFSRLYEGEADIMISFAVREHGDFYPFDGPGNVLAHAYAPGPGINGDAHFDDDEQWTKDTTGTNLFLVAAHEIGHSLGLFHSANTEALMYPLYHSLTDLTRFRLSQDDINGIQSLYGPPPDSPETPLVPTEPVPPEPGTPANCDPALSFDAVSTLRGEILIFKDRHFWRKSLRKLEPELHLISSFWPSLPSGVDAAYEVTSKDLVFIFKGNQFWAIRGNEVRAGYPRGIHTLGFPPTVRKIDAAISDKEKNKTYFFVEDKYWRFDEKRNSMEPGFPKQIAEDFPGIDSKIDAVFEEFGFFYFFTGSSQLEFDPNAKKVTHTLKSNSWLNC

Interstitial collagenase = molecular target: T2, Interstitial collagenase (Homo sapiens, UniProt P03956); test: Inhibition of human Matrix metalloprotease-1
T2 sequence (P03956 whole entry): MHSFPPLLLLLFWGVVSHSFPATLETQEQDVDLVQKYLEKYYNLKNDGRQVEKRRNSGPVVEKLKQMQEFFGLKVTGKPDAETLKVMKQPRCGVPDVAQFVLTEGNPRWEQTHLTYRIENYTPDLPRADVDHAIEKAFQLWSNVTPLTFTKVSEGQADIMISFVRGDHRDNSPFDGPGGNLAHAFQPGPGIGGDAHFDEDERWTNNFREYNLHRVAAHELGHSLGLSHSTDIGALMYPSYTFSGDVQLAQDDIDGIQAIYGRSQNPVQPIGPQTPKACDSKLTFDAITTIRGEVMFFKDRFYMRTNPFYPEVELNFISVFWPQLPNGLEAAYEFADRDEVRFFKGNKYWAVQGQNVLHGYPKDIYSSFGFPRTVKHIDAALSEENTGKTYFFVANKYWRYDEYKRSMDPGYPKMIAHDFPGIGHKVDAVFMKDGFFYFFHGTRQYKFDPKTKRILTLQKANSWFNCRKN

[1] = molecular target: 72 kDa type IV collagenase (Homo sapiens, UniProt P08253); test: Inhibition of Matrix metalloprotease-2
72 kDa type IV collagenase, sequence (P08253 whole entry): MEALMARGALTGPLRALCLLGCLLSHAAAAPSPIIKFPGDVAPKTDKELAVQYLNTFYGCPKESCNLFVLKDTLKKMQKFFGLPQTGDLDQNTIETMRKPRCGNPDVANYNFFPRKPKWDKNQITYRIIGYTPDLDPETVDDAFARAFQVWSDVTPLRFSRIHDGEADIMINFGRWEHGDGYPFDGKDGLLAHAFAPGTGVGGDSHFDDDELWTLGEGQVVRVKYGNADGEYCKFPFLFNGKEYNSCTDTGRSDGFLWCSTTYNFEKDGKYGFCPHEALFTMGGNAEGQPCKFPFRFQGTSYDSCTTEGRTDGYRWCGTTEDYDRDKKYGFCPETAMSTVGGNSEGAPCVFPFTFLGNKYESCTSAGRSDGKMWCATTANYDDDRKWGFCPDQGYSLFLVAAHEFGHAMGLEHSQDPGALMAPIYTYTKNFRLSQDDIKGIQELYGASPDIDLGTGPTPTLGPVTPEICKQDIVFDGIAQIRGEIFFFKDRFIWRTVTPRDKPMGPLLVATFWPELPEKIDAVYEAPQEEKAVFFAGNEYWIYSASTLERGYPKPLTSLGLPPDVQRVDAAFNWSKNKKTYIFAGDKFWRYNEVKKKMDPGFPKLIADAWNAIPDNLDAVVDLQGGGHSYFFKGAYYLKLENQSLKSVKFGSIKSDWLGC

[2] = molecular target: Angiotensin-converting enzyme (Homo sapiens, UniProt P12821); test: Compound was tested for its inhibitory activity against Angiotensin I converting enzyme
Angiotensin-converting enzyme, sequence (P12821 whole entry): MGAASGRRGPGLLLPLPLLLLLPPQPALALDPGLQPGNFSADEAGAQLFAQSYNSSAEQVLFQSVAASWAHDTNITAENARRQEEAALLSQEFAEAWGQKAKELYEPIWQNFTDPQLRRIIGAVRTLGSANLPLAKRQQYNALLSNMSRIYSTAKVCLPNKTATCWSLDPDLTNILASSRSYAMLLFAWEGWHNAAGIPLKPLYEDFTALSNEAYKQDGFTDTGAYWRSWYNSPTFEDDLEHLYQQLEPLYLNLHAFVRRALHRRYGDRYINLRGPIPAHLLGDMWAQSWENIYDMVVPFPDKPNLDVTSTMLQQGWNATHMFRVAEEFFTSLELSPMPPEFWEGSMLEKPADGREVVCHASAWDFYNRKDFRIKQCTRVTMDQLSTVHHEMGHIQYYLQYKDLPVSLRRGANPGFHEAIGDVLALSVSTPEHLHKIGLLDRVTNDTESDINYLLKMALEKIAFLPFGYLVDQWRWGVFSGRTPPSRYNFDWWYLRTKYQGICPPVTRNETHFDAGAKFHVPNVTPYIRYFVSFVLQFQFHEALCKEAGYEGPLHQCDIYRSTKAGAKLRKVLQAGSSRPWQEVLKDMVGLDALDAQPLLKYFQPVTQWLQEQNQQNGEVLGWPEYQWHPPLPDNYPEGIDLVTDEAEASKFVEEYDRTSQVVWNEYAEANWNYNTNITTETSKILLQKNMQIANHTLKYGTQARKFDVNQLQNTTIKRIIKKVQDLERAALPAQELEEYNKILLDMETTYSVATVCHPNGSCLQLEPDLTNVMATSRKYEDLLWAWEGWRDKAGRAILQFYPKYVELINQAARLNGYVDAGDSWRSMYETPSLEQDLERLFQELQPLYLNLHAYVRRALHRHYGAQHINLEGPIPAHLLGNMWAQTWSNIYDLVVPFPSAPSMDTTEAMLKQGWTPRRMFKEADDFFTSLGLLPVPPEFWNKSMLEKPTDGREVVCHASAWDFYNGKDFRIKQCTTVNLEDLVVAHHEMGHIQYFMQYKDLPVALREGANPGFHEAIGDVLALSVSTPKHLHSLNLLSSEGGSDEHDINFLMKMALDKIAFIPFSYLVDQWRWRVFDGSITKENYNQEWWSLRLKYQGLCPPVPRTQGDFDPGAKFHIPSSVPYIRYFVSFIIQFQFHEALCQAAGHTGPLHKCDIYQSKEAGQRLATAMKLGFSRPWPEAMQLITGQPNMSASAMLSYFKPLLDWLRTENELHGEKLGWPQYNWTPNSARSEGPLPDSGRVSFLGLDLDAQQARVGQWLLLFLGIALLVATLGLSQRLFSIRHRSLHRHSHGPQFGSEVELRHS

[3] = molecular target: T3, Matrilysin (Homo sapiens) (UniProt P09237); test: as §1; conditions: concentration not given here
T3 sequence (whole entry): T1 sequence (P09237 whole entry)

Neprilysin = Neprilysin (Homo sapiens, UniProt P08473); test: The compound was evaluated in vitro for the inhibition of Neutral endopeptidase
Neprilysin, sequence (P08473 whole entry): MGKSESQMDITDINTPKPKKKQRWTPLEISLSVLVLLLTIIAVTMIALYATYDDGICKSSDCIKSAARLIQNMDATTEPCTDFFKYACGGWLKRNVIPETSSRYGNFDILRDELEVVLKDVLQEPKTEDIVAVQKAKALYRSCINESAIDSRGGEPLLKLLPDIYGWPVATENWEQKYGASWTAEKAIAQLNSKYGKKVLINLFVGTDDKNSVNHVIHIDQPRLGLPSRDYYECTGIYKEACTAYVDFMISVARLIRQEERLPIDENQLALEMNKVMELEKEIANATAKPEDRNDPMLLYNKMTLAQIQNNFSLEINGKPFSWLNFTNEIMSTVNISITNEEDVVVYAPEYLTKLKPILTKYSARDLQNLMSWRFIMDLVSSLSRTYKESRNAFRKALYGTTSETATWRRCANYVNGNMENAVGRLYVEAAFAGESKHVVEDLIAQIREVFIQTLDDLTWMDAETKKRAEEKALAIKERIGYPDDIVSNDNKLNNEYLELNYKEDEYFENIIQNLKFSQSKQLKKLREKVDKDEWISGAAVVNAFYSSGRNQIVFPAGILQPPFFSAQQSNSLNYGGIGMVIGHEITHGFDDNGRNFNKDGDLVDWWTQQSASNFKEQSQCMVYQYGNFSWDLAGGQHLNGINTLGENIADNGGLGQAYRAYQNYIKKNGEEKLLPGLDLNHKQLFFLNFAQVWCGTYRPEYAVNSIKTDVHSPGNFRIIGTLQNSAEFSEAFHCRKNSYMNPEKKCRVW

pIC50 (Matrilysin) | pIC50 (Stromelysin-1) | pIC50 (Interstitial collagenase) | pIC50 [1] | pIC50 [2] | inhibition [3] [%] | pIC50 (Neprilysin) | Compound
< 4.00 | < 4.00 | < 4.00 | < 4.00 |  |  |  | CCCCC(CN(O)C=O)C(=O)N[C@H](C(=O)N(C)C)C(C)(C)C (stereo partly specified)
 | 5.22 | 5.96 | 5.52 | < 4.00 | 60 | 5.17 | CCCCC[C@H](CC(=O)NO)C(=O)N[C@H](C(=O)N1CCC[C@H]1CO)C(C)C [ACTINONIN]
< 4.00 | < 4.00 | 5.70 | 4.82 | < 4.00 |  | 4.30 | CCCC[C@H](CN(O)C=O)C(=O)N[C@H](C(=O)N(C)C)C(C)(C)C
